Several values for one entry are separate records, joined by “and”; a condition that tells them apart may be missing. Identical values can stand only once.
Key:
5‐HT2C receptor = target: T1, 5‐HT2C receptor (Rattus norvegicus, UniProt P08909); test: 5‐HT2C competition binding assay ([3H]mesulergine, frontal cortex membranes); details: 5 nM [3H]mesulergine, 95% CI in brackets, read-out: 5‐HT2C Ki (95% CI)
T1 construct: 10 μM pargyline and 160μg of the frontal cortex membrane suspension; from tissue; host or cells: rat (Sprague-Dawley) frontal cortex membranes
T1 sequence (P08909 33-460): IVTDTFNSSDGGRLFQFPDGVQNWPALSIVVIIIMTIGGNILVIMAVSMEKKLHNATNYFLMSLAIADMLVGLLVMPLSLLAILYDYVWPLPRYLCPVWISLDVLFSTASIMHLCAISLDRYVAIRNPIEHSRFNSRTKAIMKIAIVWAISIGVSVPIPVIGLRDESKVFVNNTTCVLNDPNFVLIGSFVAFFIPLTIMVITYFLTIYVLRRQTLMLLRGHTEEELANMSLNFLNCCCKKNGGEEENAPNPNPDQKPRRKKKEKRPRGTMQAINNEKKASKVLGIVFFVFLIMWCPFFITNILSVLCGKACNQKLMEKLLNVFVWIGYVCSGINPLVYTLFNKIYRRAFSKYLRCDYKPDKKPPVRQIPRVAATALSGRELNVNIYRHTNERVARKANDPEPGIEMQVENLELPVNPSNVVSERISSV
Protocol: (§1) Sprague‐Dawley rats were sacrificed by isoflurane overdose. Brains were rapidly removed and placed on ice. Hippocampi (for the 5‐HT1A assay) and frontal cortices (for the 5‐HT2A and 5‐HT2C assays) were dissected on a Petri dish. The tissue from 10 rats was homogenized in 30 vol. homogenization buffer (50 mM Tris–HCl, […], 1 mM EDTA, 1 mM dithiothreitol) with a handheld Teflon‐glass homogenizer. The homogenate was centrifuged at 48,000 × g at 4 °C for 15 min. The pellet was suspended and homogenized in the homogenization buffer and incubated for 10 min. at 36 °C. The centrifugation and suspension steps were repeated twice. The final pellet was homogenized in 5 vol. 50 mM Tris–HCl, pH = 7.4 buffer and stored at −80 °C for no longer than 6 months. […] For the 5‐HT2C assay, compounds were incubated in duplicate with 5 nM [^3H]mesulergine (specific activity: 80.2 Ci mmol^−1, Revvity, MA, USA) for 60 min. at 36 °C in a 50 mM Tris‐HCl (pH 7.4) buffer, supplemented with 5 mM MgCl2, 140 mM NaCl, 1 mM DTT, 1 mM CaCl2, 10 μM pargyline and 160μg of the frontal cortex membrane suspension. Non‐specific binding was determined with 10μM serotonin. The final DMSO concentration in the assay was 5%. After incubation, the reaction mixture was deposited onto Unifilter GF/C plates (Revvity, MA, USA) presoaked in 0.4% PEI (or 0.4% PEI and 0.5% Triton X‐100 for the 5‐HT2C assay) for 1 h with the FilterMate‐96 Harvester (Revvity, MA, USA). Then, each well was washed with 2 mL of 50 mM Tris–HCl (pH 7.4) buffer to separate bound ligands from free and the plates were left to dry overnight. Then, 35μl of Microscint‐20 scintillation fluid (Revvity, MA, USA) was added to each filter well and left to equilibrate for 2h. Filter‐bound radioactivity was counted in a MicroBeta2 LumiJet scintillation counter (Revvity, MA, USA). Binding curves were fitted with one site non‐linear regression. Binding affinity (pKi and Ki) for each compound was calculated from the […] values with the Cheng‐Prusoff equation from two separate experiments.

5‐HT1A receptor [1] = target: T2, 5‐HT1A receptor (Rattus norvegicus, UniProt P19327); test: 5‐HT1A receptor activation in the [35S]GTP‐γ‐S assay (hippocampal membranes); assay type: biochemical; details: [35S]GTPγS, rat hippocampal membranes; for EC50: 95% CI in brackets, read-out: EC50 (95% CI, μM), 5‐HT1A receptor G‐protein stimulation
T2 construct: 80 μg of hippocampal membrane suspension (the 5‐HT1A assay); from tissue; host or cells: rat (Sprague-Dawley) hippocampus membranes
T2 sequence (P19327 1-422): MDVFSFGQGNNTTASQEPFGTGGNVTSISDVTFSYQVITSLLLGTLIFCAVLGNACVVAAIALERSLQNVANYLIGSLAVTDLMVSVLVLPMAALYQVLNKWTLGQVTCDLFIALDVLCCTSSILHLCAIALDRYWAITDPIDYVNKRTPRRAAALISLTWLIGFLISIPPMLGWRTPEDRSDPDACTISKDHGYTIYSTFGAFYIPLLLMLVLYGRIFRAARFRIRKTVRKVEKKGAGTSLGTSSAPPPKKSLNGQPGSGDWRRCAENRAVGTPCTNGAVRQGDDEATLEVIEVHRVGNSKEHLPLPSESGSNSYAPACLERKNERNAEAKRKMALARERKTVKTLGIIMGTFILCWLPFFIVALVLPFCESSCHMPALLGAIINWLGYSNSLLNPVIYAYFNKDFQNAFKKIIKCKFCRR
Protocol: Seven compound concentrations equally spaced on a log scale (10–4 M to 10–10 M) were incubated in duplicate with hippocampal membrane preparations (5μg per well) in assay buffer (50 mM Tris‐HCl, pH = 7.4, 1 mM EGTA, 3 mM MgCl2, 100 mM NaCl, and 30 μM GDP) and 0.08 nM [^35S]GTP‐γ‐S (specific activity: 1250 Ci mmole^−1, Revvity). Nonspecific binding was determined with 10μM of unlabeled GTP‐γ‐S. The final DMSO concentration in the assay was 5%. The reaction mixture was incubated for 90 min. at 30 °C on an orbital shaker set at 250 rpm. Next, the reaction mixture was deposited under vacuum with the FilterMate Harvester (Revvity, USA) onto Unifilter GF/C Plates (Revvity, MA, USA) presoaked with wash buffer (50 mM Tris‐HCl, pH = 7.4). The wells were then rapidly washed with 2 mL of wash buffer. Filter plates were dried overnight at room temperature. Once completely dry, 35 μl of MicroScint PS (Revvity, MA, USA) scintillation fluid was added to each well. Radioactivity was counted in a MicroBeta2 LumiJet scintillation counter (Revvity, MA, USA). Data were analyzed with GraphPad Prism 5.0 software (GraphPad Software, San Diego California USA, www.graphpad.com). The curves were fitted with three‐parameter non‐linear regression model.

5‐HT2A receptor [2] = target: T3, 5‐HT2A receptor (Rattus norvegicus, UniProt P14842); test: 5‐HT2A competition binding assay ([3H]ketanserin, frontal cortex membranes); parameters: from tissue; host or cells: rat (Sprague-Dawley) frontal cortex membranes; details: 1 nM [3H]ketanserin, 95% CI in brackets, read-out: 5‐HT2A Ki (95% CI)
5‐HT2A receptor [3] = target: T3, 5‐HT2A receptor; test: Inhibition of 5‐HT‐evoked contractions in isolated rat ileum; parameters: segments (1–1.5 cm) of ileum were removed, flushed of luminal contents, and placed in Krebs solution; from tissue; host or cells: isolated rat (Sprague-Dawley) ileum segments; details: 5‐HT 10^−5 M, compounds 10^−8–10^−5 M; for IC50: IC50, inhibition of 5‐HT‐induced contractions in the rat ileum, contact time 10 min; for Emax: read-out: EMAX, maximal inhibitory effect on 5‐HT‐induced contractions in the rat ileum
Protocol: Male rats (Sprague‐Dawley, 160–200 g; Charles River Laboratories; Calco, Italy) were manipulated and cared for in strict compliance with the principles of laboratory animal care. Experimental procedures were conducted in conformity with Italian (D.L. 26/2014) and European (directive 2010/63/EU) regulations on the protection of animals used for scientific purposes and approved by the Italian Ministry. Animal housing complied with recent pharmacological guidance.^[ [40] ^] All animals weighing 160–200 g were used after a 1‐week acclimation period (temperature 23 ± 2 °C; humidity 60%, free access to water and standard food).
The segments were prepared as previously described:^[ [41] ^] the segments were set up in such a way as to record contractions mainly from the longitudinal axis, in an organ bath containing 20 mL of Krebs solution, bubbled with 95% O2 and 5% CO2 and maintained at 37 °C. The tissues were connected to an isotonic transducer (load: 0.5 g), connected to Power Lab system (Ugo Basile, Comerio, Italy). Ileal segments were equilibrated for 60 min^[ [16] ^] followed by three repeated additions of submaximal concentration of 5‐HT (10^−5 M) in order to record stable control contractions. […] The contact time for each concentration was 10 min. The compounds were dissolved in DMSO. […] Results are expressed as mean (SEM). […] The IC50 and Emax values were calculated with the aid of a computer program (GraphPad Prism 5).

5‐HT1A receptor [4] = target: T2, 5‐HT1A receptor; test: 5‐HT1A competition binding assay ([3H]8‐OH‐DPAT, hippocampal membranes); details: 1 nM [3H]8‐OH‐DPAT, 95% CI in brackets, read-out: 5‐HT1A Ki (95% CI)
Protocol: as §1

T3 sequence (P14842 whole entry): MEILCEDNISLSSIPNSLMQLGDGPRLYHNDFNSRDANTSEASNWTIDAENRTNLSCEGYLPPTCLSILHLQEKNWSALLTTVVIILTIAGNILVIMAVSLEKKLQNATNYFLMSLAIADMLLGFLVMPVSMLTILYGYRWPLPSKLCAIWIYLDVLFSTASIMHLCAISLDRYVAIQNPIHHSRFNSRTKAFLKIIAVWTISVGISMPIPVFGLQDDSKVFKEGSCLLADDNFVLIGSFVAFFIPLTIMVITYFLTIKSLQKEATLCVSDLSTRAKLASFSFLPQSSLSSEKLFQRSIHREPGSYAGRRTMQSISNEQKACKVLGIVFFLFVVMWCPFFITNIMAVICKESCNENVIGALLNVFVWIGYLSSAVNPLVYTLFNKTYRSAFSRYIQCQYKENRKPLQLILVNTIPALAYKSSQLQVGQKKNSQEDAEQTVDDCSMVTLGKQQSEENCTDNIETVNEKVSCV

| Compound | Ki (5‐HT2C receptor) [µM] | EC50 (5‐HT1A receptor [1]) [µM] | Emax (5‐HT1A receptor [1]; read-out: Emax (%) ± SEM, 5‐HT1A receptor G‐protein stimulation) [%] | Ki (5‐HT2A receptor [2]) [µM] | EMAX, maximal inhibitory effect on 5‐HT‐induced contractions in the rat ileum (5‐HT2A receptor [3]) [%] | IC50 (5‐HT2A receptor [3]) [µM] | Ki (5‐HT1A receptor [4]) | Emax (%) ± SEM, 5‐HT1A receptor G‐protein stimulation (5‐HT1A receptor [1]) [%] | Emax (5‐HT2A receptor [3]) [%] |
| --- | --- | --- | --- | --- | --- | --- | --- | --- | --- |
| O=C(NCCCN1CCN(c2cccc(C3=NCCS3)c2)CC1)C1CC2C=CC1C2 (stereo not drawn) [FG‐14, Exo‐N‐(3‐(4‐(3‐(4,5‐dihydrothiazol‐2‐yl)phenyl)piperazin‐1‐yl)propyl) bicyclo [2.2.1] hept‐5‐ene‐2‐carboxamide] | 0.072 | 23.3 | 133 ± 5.7 | 0.43 | 22.48 | 2.59 | 0.34 µM | – | – |
| O=C(NCCCN1CCN(c2cccc(C3=NCCS3)c2)CC1)C1CC2C=CC1C2 (stereo not drawn) [FG‐17, Endo‐N‐(3‐(4‐(3‐(4,5‐dihydrothiazol‐2‐yl)phenyl)piperazin‐1‐yl)propyl) bicyclo[2.2.1]hept‐5‐ene‐2‐carboxamide] | 1.66 | 21.1 | – | 6.06 | – | 1.25 | 0.823 µM | 134 ± 2.5 | 25 |
| O=C(NCCCN1CCN(c2ccccc2C2=NCCS2)CC1)C1CC2C=CC1C2 (stereo not drawn) [FG‐16, Endo‐N‐(3‐(4‐(2‐(4,5‐dihydrothiazol‐2‐yl)phenyl)piperazin‐1‐yl)propyl) bicyclo[2.2.1] hept‐5‐ene‐2‐carboxamide] | 4.83 | 41 | – | 1.37 | – | 6.35 | 0.025 µM and 0.0251 µM | 127 ± 3.2 | 39.1 |

From article PMC12321279, “Novel 4,5‐Dihydrothiazole‐Phenylpiperazine Derivatives: Synthesis, Docking Studies and Pharmacological Evaluation as Serotonergic Agents” (Chemmedchem, 2025)
